Measurements: patent US9763874B2, “Nanoparticles loaded with chemotherapeutic antitumoral drug” (priority 2011, dated 2017)

What was measured:
HCC = conditions: IV infusion in HCC; cited from earlier work
healthy Wistar rats = assay: Example 2: adverse effects after a single IV bolus injection (mortality, lung injuries); format: in vivo, rat; conditions: 7.5 mg/kg single IV bolus
Description: The aim of the present in vivo study was to establish and assess a rat model able to induce toxicological signs and lung injuries similar to severe pulmonary adverse events observed in said clinical trial.
The dose levels of 5, 7.5 and 10 mg/kg were chosen according to previous in vivo studies, they respectively correspond to 30 mg/m2, 45 mg/m2 and 60 mg/m2 human doses.
The study involved finally 123 male Wistar rats.
Rats were weighted and distributed according to their individual body weight to form […] the day of IV treatment.
Drug suspension was administered according to the body weight of rat determined just before the administration, so as to administer a dose volume of 670 μl of a 3.71 mg/ml suspension to a 250 g rat. • The rats from groups 13 to 16 received a single IV injection of Doxorubicin at 7.5 mg/kg equivalent Doxorubicin HCl (Q1Dx1). […] Solution was administered according to the body weight of rat determined just before the administration, so as to administer a dose volume of 670 μl solution to a 250 g rat. • The rats from group 21 (Untreated control group) received no treatment.
Treatment allocation was decided at random and was as disclosed in Table 2.

unresectable HCC = conditions: patients with unresectable HCC; cited from earlier work

Row | Structure (SMILES) | objective response rate (HCC) | mortality and lung injuries (healthy Wistar rats) | overall survival over placebo (unresectable HCC)
1 | COc1cccc2c1C(=O)c1c(O)c3c(c(O)c1C2=O)C[C@@](O)(C(=O)CO)C[C@@H]3O[C@H]1C[C@H](N)[C@H](O)[C@H](C)O1 [Doxorubicin, doxorubicin] | 5-10% | Neither mortality, nor lung injuries | –
2 | CNC(=O)c1cc(Oc2ccc(NC(=O)Nc3ccc(Cl)c(C(F)(F)F)c3)cc2)ccn1 [sorafenib] | – | – | increase even modest
